Where two headings read alike, the source gives them in different places.
How the values were obtained:
[1] = biological target: T1, HIV integrase (Human immunodeficiency virus type 1 group M subtype B, UniProt P04585); test: biochemical
[2] = biological target: T1, HIV integrase; test: biochemical; remark: listed apart in the source
[3] = biological target: HIV reverse transcriptase (Human immunodeficiency virus type 1 group M subtype B, UniProt P03366); test: Reverse transcriptase scintillation proximity assay (Example 4, Table 2); type: biochemical; settings: for remaining activity at 10 µM: 0.05 h, read-out: % RT activity remaining at 10 μM; for IC50: read-out: IC50 (RT activity)
In short: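 Purified RT with biotinylated 17mer/50mer RNA-DNA template-primer (39 nm), pH 8.0 Tris with 10 mM MgCl2, 60 mM KCl, dNTPs plus tritiated dTTP; inhibitor preincubated 10 min at 37 °C before enzyme, reaction 3 min. Incorporation read by streptavidin SPA counting.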

[4] = read-out: Inhibition of strand transfer (IC50)
[5] = read-out: Inhibition of 3' processing activity (IC50)
[6] = 10 μM inhibitor, relative to dimethyl sulfoxide = 100%
[7] = Inhibition of strand transfer (IC50)
[8] = Inhibition of 3' processing activity (IC50)

Structure (SMILES) | IC50 [1, 4] [nM] | IC50 [2, 5] [nM] | remaining activity at 10 µM [3, 6] [%] | remaining activity at 10 µM [3] [%] | IC50 [1, 7] [nM] | IC50 [2, 8] [nM] | IC50 [3] [nM]
COC(=O)/C=C/c1ccc(N=Nc2c(S(=O)(=O)O)cc3cc(NC(=O)Nc4ccc5c(O)c(N=Nc6ccc(/C=C/C(=O)OC)cc6)c(S(=O)(=O)O)cc5c4)ccc3c2O)cc1 [Compound 56] | > 3000 | > 3000 | 27 |  |  |  | 
O=C(Nc1ccc2c(O)c(N=Nc3c(Cl)cc(C(=O)O)cc3Cl)c(S(=O)(=O)O)cc2c1)Nc1ccc2c(O)c(N=Nc3c(Cl)cc(C(=O)O)cc3Cl)c(S(=O)(=O)O)cc2c1 [Compound 52] | 500 | 200 | 1.3 |  |  |  | 
COc1cc(N=Nc2c(S(=O)(=O)O)cc3cc(NC(=O)Nc4ccc5c(O)c(N=Nc6cc(OC)c(OC)cc6C(=O)O)c(S(=O)(=O)O)cc5c4)ccc3c2O)c(C(=O)O)cc1OC [Compound 60] | 2000 | 800 | 6 |  |  |  | 
O=C(Nc1ccc2c(O)c(N=Nc3ccc(CP(=O)(O)O)cc3)c(S(=O)(=O)O)cc2c1)Nc1ccc2c(O)c(N=Nc3ccc(CP(=O)(O)O)cc3)c(S(=O)(=O)O)cc2c1 [Compound 61] | > 3000 | > 3000 |  | 53 |  |  | 
COc1cc(C(=O)O)c(N=Nc2c(S(=O)(=O)O)cc3cc(NC(=O)Nc4ccc5c(O)c(N=Nc6c(C(=O)O)cc(OC)c(OC)c6OC)c(S(=O)(=O)O)cc5c4)ccc3c2O)c(OC)c1OC [Compound 50] | 2000 | 2000 | 1.3 |  |  |  | 
O=C(Nc1ccc2c(O)c(N=Nc3cccc([N+](=O)[O-])c3)c(S(=O)(=O)O)cc2c1)Nc1ccc2c(O)c(N=Nc3cccc([N+](=O)[O-])c3)c(S(=O)(=O)O)cc2c1 [Compound 45] |  |  | 2.8 |  | > 3000 | > 3000 | 
CCOC(=O)c1cccc(N=Nc2c(S(=O)(=O)O)cc3cc(NC(=O)Nc4ccc5c(O)c(N=Nc6cccc(C(=O)OCC)c6)c(S(=O)(=O)O)cc5c4)ccc3c2O)c1 [Compound 43] | > 20000 | > 20000 | 52 |  |  |  | 
COc1cc(N=Nc2c(S(=O)(=O)O)cc3cc(NC(=O)Nc4ccc5c(O)c(N=Nc6cc(OC)cc(OC)c6)c(S(=O)(=O)O)cc5c4)ccc3c2O)cc(OC)c1 [Compound 38] | > 3000 | > 3000 | 47 |  |  |  | 
O=C(Nc1ccc2c(O)c(N=Nc3ccccc3)c(S(=O)(=O)O)cc2c1)Nc1ccc2c(O)c(N=Nc3ccccc3)c(S(=O)(=O)O)cc2c1 [Compound 4, calcomine orange, reference compound] | 2000 | 2000 |  |  |  |  | 1500
O=C(O)CC(C(=O)O)c1ccc(N=Nc2c(S(=O)(=O)O)cc3cc(NC(=O)Nc4ccc5c(O)c(N=Nc6ccc(C(CC(=O)O)C(=O)O)cc6)c(S(=O)(=O)O)cc5c4)ccc3c2O)cc1 (centres unmarked) [Compound 33] | 600 | 300 |  |  |  |  | 500
COc1ccc(N=Nc2c(S(=O)(=O)O)cc3cc(NC(=O)Nc4ccc5c(O)c(N=Nc6ccc(OC)nc6OC)c(S(=O)(=O)O)cc5c4)ccc3c2O)c(OC)n1 [Compound 40] | > 3000 | > 3000 | 31 |  |  |  | 
O=C(Nc1ccc2c(O)c(N=Nc3cnc4ccccc4c3)c(S(=O)(=O)O)cc2c1)Nc1ccc2c(O)c(N=Nc3cnc4ccccc4c3)c(S(=O)(=O)O)cc2c1 [Compound 37] | > 3000 | > 3000 | 16 |  |  |  | 
O=C(Nc1ccc2c(O)c(N=Nc3cc(C(=O)O)cc(C(=O)O)c3)c(S(=O)(=O)O)cc2c1)Nc1ccc2c(O)c(N=Nc3cc(C(=O)O)cc(C(=O)O)c3)c(S(=O)(=O)O)cc2c1 [Compound 51] | 900 | 500 | 1.1 |  |  |  | 
O=C(O)CCCc1ccc(N=Nc2c(S(=O)(=O)O)cc3cc(NC(=O)C(=O)Nc4ccc5c(O)c(N=Nc6ccc(CCCC(=O)O)cc6)c(S(=O)(=O)O)cc5c4)ccc3c2O)cc1 [Compound 95] | 700 | 400 |  |  |  |  | 
O=C(Nc1ccc2c(O)c(N=Nc3ccccc3)c(S(=O)(=O)O)cc2c1)C(=O)Nc1ccc2c(O)c(N=Nc3ccccc3)c(S(=O)(=O)O)cc2c1 [Compound 106] | 400 | 1500 |  |  |  |  | 
O=C(Nc1ccc2c(O)c(N=Nc3ccc(C(=O)O)cc3)c(S(=O)(=O)O)cc2c1)Nc1ccc2c(O)c(N=Nc3ccc(C(=O)O)cc3)c(S(=O)(=O)O)cc2c1 [Compound 67] | 250 | 90 |  |  |  |  | 
COc1cc(C(=O)O)c(N=Nc2c(S(=O)(=O)O)cc3cc(NC(=O)C(=O)Nc4ccc5c(O)c(N=Nc6c(C(=O)O)cc(OC)c(OC)c6OC)c(S(=O)(=O)O)cc5c4)ccc3c2O)c(OC)c1OC [Compound 102] | 700 | 600 |  |  |  |  | 
Cc1ccc(CO)cc1N=Nc1c(S(=O)(=O)O)cc2cc(NC(=O)Nc3ccc4c(O)c(N=Nc5cc(CO)ccc5C)c(S(=O)(=O)O)cc4c3)ccc2c1O [Compound 55] | > 3000 | > 3000 | 24 |  |  |  | 
COC(=O)c1ccc(N=Nc2c(S(=O)(=O)O)cc3cc(NC(=O)Nc4ccc5c(O)c(N=Nc6ccc(C(=O)OC)cc6I)c(S(=O)(=O)O)cc5c4)ccc3c2O)c(I)c1 [Compound 47] | > 3000 | > 3000 | 2 |  |  |  | 
O=C(Nc1ccc2c(O)c(N=Nc3cccc4c(=O)[nH][nH]c(=O)c34)c(S(=O)(=O)O)cc2c1)Nc1ccc2c(O)c(N=Nc3cccc4c(=O)[nH][nH]c(=O)c34)c(S(=O)(=O)O)cc2c1 [Compound 49] | 1000 | 2000 | 1 |  |  |  | 
O=C(Nc1ccc2c(O)c(N=Nc3ccc([N+](=O)[O-])cc3)c(S(=O)(=O)O)cc2c1)Nc1ccc2c(O)c(N=Nc3ccc([N+](=O)[O-])cc3)c(S(=O)(=O)O)cc2c1 [Compound 46] |  |  | 4.6 |  | > 3000 | > 3000 | 
O=C(O)CCC(NC(=O)c1ccc(N=Nc2c(S(=O)(=O)O)cc3cc(NC(=O)C(=O)Nc4ccc5c(O)c(N=Nc6ccc(C(=O)NC(CCC(=O)O)C(=O)O)cc6)c(S(=O)(=O)O)cc5c4)ccc3c2O)cc1)C(=O)O (centres unmarked) [Compound 107] | 500 | 700 |  |  |  |  | 
O=C(O)Cc1ccc(N=Nc2c(S(=O)(=O)O)cc3cc(NC(=O)C(=O)Nc4ccc5c(O)c(N=Nc6ccc(CC(=O)O)cc6)c(S(=O)(=O)O)cc5c4)ccc3c2O)cc1 [Compound 93] | 500 | 900 |  |  |  |  | 
CCOC(=O)c1c[nH]nc1N=Nc1c(S(=O)(=O)O)cc2cc(NC(=O)Nc3ccc4c(O)c(N=Nc5n[nH]cc5C(=O)OCC)c(S(=O)(=O)O)cc4c3)ccc2c1O [Compound 64] | > 3000 | > 3000 |  |  |  |  | 
COc1ccc(N=Nc2c(S(=O)(=O)O)cc3cc(NC(=O)Nc4ccc5c(O)c(N=Nc6ccc(OC)c(OC)c6)c(S(=O)(=O)O)cc5c4)ccc3c2O)cc1OC [Compound 39] | 3000 | 2000 | 12 |  |  |  | 
CCOC(=O)c1ccccc1N=Nc1c(S(=O)(=O)O)cc2cc(NC(=O)Nc3ccc4c(O)c(N=Nc5ccccc5C(=O)OCC)c(S(=O)(=O)O)cc4c3)ccc2c1O [Compound 42] | > 3000 | > 3000 | 47 |  |  |  | 
O=C(Nc1ccc2c(O)c(N=Nc3ccc4oc(=O)ccc4c3)c(S(=O)(=O)O)cc2c1)Nc1ccc2c(O)c(N=Nc3ccc4oc(=O)ccc4c3)c(S(=O)(=O)O)cc2c1 [Compound 59] | 1000 | 2000 | 2 |  |  |  | 
